Results on 12 compounds are retold here after ChEMBL document CHEMBL3044864, “Synthesis and in vitro anticancer activities of novel aryl-naphthalene lignans” (Med Chem Res, 2012).

Active and inactive are the calls of the source. The calls are words filed in the database; no cut-off is given here. A value given as a limit tells only on which side of the number the result lay.

For assay [1], the system named is KB. In words: Induction of apoptosis in Homo sapiens (human) KB cells assessed as upregulation of bax expression at 5 to 15 uM after 72 hr by Western blot analysis. In kind it is functional, cell-based. On the technique in general: Immunoblotting shows a protein as a band on a membrane.
A further assay concerns SW480. Kind of assay: Cytotoxicity against Homo sapiens (human) SW480 cells after 72 hr by MTT assay. In kind it is functional, cell-based. The conditions noted are these: SW480, 72 h. On the technique in general: Tetrazolium dyes change colour on reduction, which living cells bring about.
Assay [2] deals with KB. Kind of assay: Induction of apoptosis in Homo sapiens (human) KB cells assessed as nuclear condensation at 5 to 10 uM after 72 hr using Hoechst/PI staining by fluorescence microscopy. The format is functional, cell-based.
For a further assay, the system named is A549. Kind of assay: Cytotoxicity against Homo sapiens (human) A549 cells after 72 hr by MTT assay. In kind it is functional, cell-based. The conditions noted are these: A549, 72 h.
The subject of assay [3] is KB. Kind of assay: Induction of apoptosis in Homo sapiens (human) KB cells assessed as nuclear fragmentation at 5 to 10 uM after 72 hr using AO/EB staining by fluorescence microscopy. The format is functional, cell-based.
The subject of assay [4] is KB. Kind of assay: Induction of apoptosis in Homo sapiens (human) KB cells assessed as increase in cleaved caspase 3 level after 72 hr by Western blot analysis. The format is functional, cell-based.
Assay [5] has as its system KB. In words: Cytotoxicity against Homo sapiens (human) KB cells after 72 hr by MTT assay. The format is functional, cell-based.
In assay [6] the test system is KB. In words: Induction of apoptosis in Homo sapiens (human) KB cells assessed as early apoptic cells with nuclear condensation at 5 to 10 uM after 72 hr using AO/EB staining by fluorescence microscopy. The format is functional, cell-based.
Assay [7] relates to KB. In words: Induction of apoptosis in Homo sapiens (human) KB cells assessed as downregulation of bcl2 expression at 5 to 15 uM after 72 hr by Western blot analysis. The format is functional, cell-based.
Assay [8] relates to KB. Kind of assay: Induction of apoptosis in Homo sapiens (human) KB cells assessed as appearance of apoptotic bodies n at 5 to 10 uM after 72 hr using AO/EB staining by fluorescence microscopy. In kind it is functional, cell-based.
The nature of assay [9]: Antiproliferative activity against Homo sapiens (human) monocytes. The format is cell-based. The conditions noted are these: Monocyte.
Another assay concerns Leishmania. In words: Antileishmanial activity against Leishmania promastigotes. In kind it is functional, organism-based.

For orientation: IC50 means the concentration at which inhibition is half-maximal. A high value points to lower potency. With `Cc1ccc(-c2c3c(c(O)c4cc5c(cc24)OCO5)COC3=O)cc1`, the outcome in the assay on KB [1], with KB [2], with KB [3], with KB [6], in the assay on KB [7] and in the assay on KB [8] was Active. In addition, the values for the IC50 with SW480, in the assay on A549 and in the assay with KB [5] were 4 µM, 30 µM and 18.9 µM, respectively. For the same compound, the Activity entry with KB [4] was “Dose-dependent effect”.
Take `COc1cc2c(O)c3c(c(-c4ccc5c(c4)OCO5)c2cc1OC)C(=O)OC3` [DIPHYLLIN]: the half-maximal inhibitory concentration (IC50) in assay [9] came out at 35.2 µM; with SW480, 3.4 µM; in the assay on A549, 8 µM; with KB [5], 5.3 µM; in the assay on Leishmania it was 14.4 µM.
For the compound `COc1cc(-c2c3c(c(O)c4cc5c(cc24)OCO5)COC3=O)cc(OC)c1OC` [DEHYDROPODOPHYLLOTOXIN], the values for the IC50 in the assay on SW480, in the assay with A549 and in the assay with KB [5] were more than 100 µM, 107 µM and 29.1 µM, respectively.
On the same counts, the results for `COc1ccc(OC)c(-c2c3c(c(O)c4cc5c(cc24)OCO5)COC3=O)c1` are more than 100 µM, more than 100 µM and more than 100 µM.
Taken in the same sequence, the figures for `COc1ccc(-c2c3c(c(O)c4cc5c(cc24)OCO5)COC3=O)cc1OC` were more than 100 µM, 39.5 µM and 45.2 µM.
Taken in the same sequence, the figures for `COc1ccc(-c2c3c(c(O)c4cc5c(cc24)OCO5)COC3=O)cc1` were more than 100 µM, 35.6 µM and more than 100 µM.
Consider `COc1cccc(-c2c3c(c(O)c4cc5c(cc24)OCO5)COC3=O)c1`, for which the values for the IC50 with SW480, in the assay with A549 and in the assay on KB [5] were more than 100 µM, 68.6 µM and more than 100 µM, respectively.
Turning to `COc1ccccc1-c1c2c(c(O)c3cc4c(cc13)OCO4)COC2=O`, the IC50 with SW480 is 21.1 µM; in the assay on A549, more than 100 µM; in the assay on KB [5] it was more than 100 µM.
Consider `O=C1OCc2c1c(-c1ccccc1)c1cc3c(cc1c2O)OCO3`, for which the half-maximal inhibitory concentration (IC50) in the assay with SW480, in the assay with A549 and with KB [5] was more than 100 µM each time.
In the case of `O=C1OCc2c1c(-c1ccc3c(c1)OCO3)c1cc3c(cc1c2O)OCO3` [TAIWANIN E], the 50% inhibitory concentration (IC50) is more than 100 µM with SW480, 53.3 µM with A549 and 19.7 µM with KB [5].
`COc1cc([C@@H]2c3cc4c(cc3[C@@H](O[C@@H]3O[C@@H]5CO[C@@H](C)O[C@H]5[C@H](O)[C@H]3O)[C@H]3COC(=O)[C@H]23)OCO4)cc(OC)c1O` [ETOPOSIDE]: the concentration for half-maximal inhibition (IC50) came out at 6.4 µM in the assay with SW480, 3.9 µM in the assay on A549 and 8.3 µM with KB [5].
On the same counts, the results for `COc1cc(OC)cc(-c2c3c(c(O)c4cc5c(cc24)OCO5)COC3=O)c1` are more than 100 µM, more than 100 µM and 33.3 µM.
